The text below walks through data of publication PMC9142968, “Nitro-Group-Containing Thiopeptide Derivatives as Promising Agents to Target Clostridioides difficile” (Pharmaceuticals, 2022).

In brackets after ≈: the same amount, converted by molar mass. Read-outs that look alike come from different tables or passages of the source.

One may read the MIC as the lowest concentration found to suppress growth. What is called MIC50 is an inhibitory concentration at the 50% level, which refers to growth in some studies and to a panel of isolates in others. Usually share remaining stands for the share of the starting amount still present when the sample was taken. In general, fraction unbound refers to free concentration divided by total concentration.

One data set deals with S. aureus. Nature of the data set: MIC against Gram-positive/Gram-negative panel. Format: cell-based. Particulars: Staphylococcus aureus.
Another data set deals with E. faecalis. The data set can be described thus: MIC against Gram-positive/Gram-negative panel. Format: cell-based. Particulars: Enterococcus faecalis.
The test system of another data set is A. baumannii. Nature of the data set: MIC against Gram-positive/Gram-negative panel. Format: cell-based. Particulars: Acinetobacter baumannii, ATCC17904.
Another data set has as its system K. pneumoniae. The data set can be described thus: MIC against Gram-positive/Gram-negative panel. Format: cell-based. Particulars: Klebsiella pneumoniae, ATCC10031.
For data set [1], the system named is C. difficile clinical isolates. The data set can be described thus: MIC by agar dilution, classified C. difficile clinical isolates (South Korea). Format: cell-based, Clostridioides difficile.
The test system of data set [2] is C. difficile. Nature of the data set: MIC by agar dilution, representative C. difficile strains. Format: cell-based. Particulars: Clostridioides difficile.
For another data set, the system named is P. aeruginosa. The data set can be described thus: MIC against Gram-positive/Gram-negative panel. Format: cell-based. Particulars: Pseudomonas aeruginosa, ATCC27853.
Data set [3] has as its system C. difficile ribotype 027. The data set can be described thus: Time-kill assay. Format: cell-based, Clostridioides difficile. Particulars: C. difficile ribotype 027, at 1×, 2× and 4× MIC; bactericidal = ≥3 log10 CFU/mL reduction vs starting inoculum. How it is done:
The time-kill studies were performed by the CLSI method. […] Vancomycin was diluted in distilled water and AJ-024 was diluted in 1% (v/v) DMSO. […] Samples were removed at 0, 3, 6, and 24 h post inoculation, and serial 10-fold dilutions were performed. The number of viable cells were determined on BHI agar containing 0.5% yeast extract and 5% defibrinated sheep blood after 24 h of incubation. The plates were incubated at 37 ℃ in an anaerobic chamber. Antimicrobials were considered bactericidal at the lowest concentration that reduced the original inoculum by 3 log 10 CFU/mL at each of the time periods and bacteriostatic if the inoculum was reduced by 0 to 3 log 10 CFU/mL.

For data set [4], the system named is C. difficile. Particulars: treatment of CDI; background statement of the introduction; cited from earlier work.
A further data set relates to E. faecium. Nature of the data set: MIC against Gram-positive/Gram-negative panel. Format: cell-based. Particulars: Enterococcus faecium.
In data set [5] the test system is C. difficile ribotype 027. The data set can be described thus: Mouse IBD-C. difficile comorbidity infection model. Format: in vivo. Particulars: mice, DSS-induced IBD + C. difficile ribotype 027, 30 mg/kg once daily oral gavage, observed period of 15 days. On the procedure:
C. difficile ribotype 027 was grown on blood agar plate and incubated for two days at 37 ℃ in an anaerobic chamber and sub-cultured on 70:30 sporulation medium to facilitate the sporulation of C. difficile ribotype 027. Briefly, the sporulation medium consists of 70% SMC (Bacto peptone 90 g, protease peptone 5 g, NH4SO4 1 g, tris base 1.5 g, agar 15 g per liter) and 30% BHIS (BHI agar with 0.5% yeast extract) agar. For inoculation, bacterial colonies were suspended in 0.9% saline solution and further diluted with saline solutions to adjust OD (Optical Density) 1.0 at 1/10 of original saline solutions. Groups of five male C57BL/6J mice were injected orally with a single 0.5 mL dose of the bacterial suspension.
All animal experiments were conducted in accordance with the ethical guidelines of the Ethics Review Committee for Animal Experimentation at Handong Global University (Republic of Korea, protocol #HGU-20211214-20). C57BL/6J male (4-week-old male weighing 20 to 22 g, Daehan Bio Link Co., Ltd., Eumseong, Korea) 5 mouse per group was used in C. difficile infection model. Mice were maintained in animal chambers kept at 23 ± 2 ℃ with 55% ± 20% relative humidity. An amount of 2% dextran sodium sulfate (DSS, MP biomedical, Irvine, CA, USA) was inoculated by drinking water for 5 days to cause colitis in mice. […]

The next data set relates to E. coli. Nature of the data set: MIC against Gram-positive/Gram-negative panel. Particulars: Escherichia coli, ATCC25922. Format: cell-based.
The nature of the next data set: Plasma stability. Format: in vitro ADME. Particulars: human plasma, 30 min; read-out: PS % Remaining (30 min). How it is done:
No significant metabolic liabilities were noted. Incubation of AJ-024 for 30 min with human liver microsomes and with human plasma proteins returned 63.8% and 95.9% of unchanged compound, respectively.

For another data set, the target named is CYP2C19 (Homo sapiens, UniProt P33261). The data set can be described thus: Inhibition of CYP enzyme activity (S-mephenytoin probe). Particulars: test compound 10 uM; activity expressed as percentage of control.
The next data set can be described thus: in vitro. Particulars: human, plasma.
Where [6] appears, read: ATCC25923, S. aureus ATCC 25923, read-out: MIC.
The mark [7] stands for this setting: ATCC43300, S. aureus ATCC 43300, read-out: MIC.
Setting [8] is: S. aureus clinical isolate, read-out: MIC.
Setting [9] is: ATCC29212, E. faecalis ATCC 29212, read-out: MIC.
Setting [10] is: E. faecalis clinical isolate, read-out: MIC.
[11] abbreviates: A. baumannii ATCC 17904, read-out: MIC.
Where [12] appears, read: K. pneumoniae ATCC 10031, read-out: MIC.
[13] abbreviates: P. aeruginosa ATCC 27853, read-out: MIC.
The mark [14] stands for this setting: ATCC19434, E. faecium ATCC 19434, read-out: MIC.
Setting [15] is: E. faecium clinical isolate, read-out: MIC.
Setting [16] is: E. coli ATCC 25922, read-out: MIC.

Sequence of CYP2C19 (P33261 whole entry): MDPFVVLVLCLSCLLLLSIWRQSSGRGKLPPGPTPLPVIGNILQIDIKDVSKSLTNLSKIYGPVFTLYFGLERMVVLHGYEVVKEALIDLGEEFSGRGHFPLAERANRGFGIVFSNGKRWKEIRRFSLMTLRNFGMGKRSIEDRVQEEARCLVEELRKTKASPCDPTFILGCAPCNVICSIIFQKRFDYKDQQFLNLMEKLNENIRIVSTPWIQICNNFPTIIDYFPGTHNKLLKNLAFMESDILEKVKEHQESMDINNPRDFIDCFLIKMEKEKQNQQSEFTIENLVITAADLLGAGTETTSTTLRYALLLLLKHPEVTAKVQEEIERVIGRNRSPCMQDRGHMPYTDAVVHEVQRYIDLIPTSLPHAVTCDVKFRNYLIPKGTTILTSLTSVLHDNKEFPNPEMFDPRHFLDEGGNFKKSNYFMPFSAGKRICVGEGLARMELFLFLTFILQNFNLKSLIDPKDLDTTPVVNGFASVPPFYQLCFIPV

Turning to `CN[C@H](CC(C)C)C(=O)N[C@H]1C(=O)N[C@@H](CC(N)=O)C(=O)N[C@H]2C(=O)N[C@H]3C(=O)N[C@H](C(=O)N[C@H](C(=O)O)c4cc(O)cc(O)c4-c4cc3ccc4O)[C@H](O)c3ccc(c(Cl)c3)Oc3cc2cc(c3O[C@@H]2O[C@H](CO)[C@@H](O)[C@H](O)[C@H]2O[C@H]2C[C@](C)(N)[C@H](O)[C@H](C)O2)Oc2ccc(cc2Cl)[C@H]1O` [Vancomycin], the minimum inhibitory concentration (MIC) is over 32 µg/mL in the data set with S. aureus; 0.5 µg/mL (≈ 0.345 µM) against S. aureus (ATCC25923); 0.5 µg/mL (≈ 0.345 µM) with S. aureus (ATCC43300); over 32 µg/mL in the data set on E. faecalis; 0.5 µg/mL (≈ 0.345 µM) in the data set with E. faecalis (ATCC29212); over 32 µg/mL in the data set on A. baumannii. The MIC was over 32 µg/mL with K. pneumoniae; 1 µg/mL (≈ 0.69 µM) in the data set with C. difficile [2] (ATCC9689); 1 µg/mL (≈ 0.69 µM) in the data set on C. difficile [2] (ATCC17858); 1 µg/mL (≈ 0.69 µM) with C. difficile [2] (ATCC43255); 1 µg/mL (≈ 0.69 µM) in the data set on C. difficile [2] (ATCC51695); 1 µg/mL (≈ 0.69 µM) against C. difficile [2] (ATCCBAA1871). Also, the MIC against P. aeruginosa was over 32 µg/mL; against E. faecium, over 32 µg/mL; in the data set with E. faecium (ATCC19434), 1 µg/mL (≈ 0.69 µM); against E. coli it was over 32 µg/mL. Besides, in data set [1], the MIC range lay within 0.5 to 2 µg/mL. Moreover, in data set [1] (Clostridioides difficile), the MIC50 turned out to be 1 µg/mL (≈ 0.69 µM). Moreover, in data set [3], the “Killing activity (bactericidal / bacteriostatic)” value is “bacteriostatic”. Moreover, the Rate of relapse in the data set with C. difficile [4] is given as 25% to 30%. Also, the Survival rate in [5] stood at 80%.

Take `CC(=O)NC[C@H]1CN(c2ccc(N3CCOCC3)c(F)c2)C(=O)O1` [LIZ, Linezolid]: the minimum inhibitory concentration (MIC) in the data set on S. aureus (setting [6]) was 2 µg/mL (≈ 5.93 µM); in the data set on S. aureus (setting [7]) it was 2 µg/mL (≈ 5.93 µM); in the data set on S. aureus (setting [8]) it was 1 µg/mL (≈ 2.96 µM); with E. faecalis (setting [9]), 2 µg/mL (≈ 5.93 µM); with E. faecalis (setting [10]), 4 µg/mL (≈ 11.9 µM); with A. baumannii (setting [11]), over 32 µg/mL. For the same compound, the minimal inhibitory concentration (MIC) in the data set on K. pneumoniae (setting [12]) is over 32 µg/mL; in the data set with P. aeruginosa (setting [13]), over 32 µg/mL; in the data set with E. faecium (setting [14]), 2 µg/mL (≈ 5.93 µM); in the data set with E. faecium (setting [15]), 2 µg/mL (≈ 5.93 µM); in the data set on E. coli (setting [16]), over 32 µg/mL.

With `CCOC(=O)[C@H](CCc1ccccc1)N[C@@H](C)C(=O)N1CCC[C@H]1C(=O)O` [Enalapril], in the data set “Plasma stability”, the fraction remaining at 0.5 h turned out to be 95.2%.

As to `CC=C(NC(=O)c1csc(-c2csc(-c3ccc4c(n3)-c3csc(n3)C(C(C)O)NC(=O)c3csc(n3)C(C(C)C)NC(=O)c3csc(n3)C(=CC)NC(=O)C(C(C)O)NC(=O)c3csc-4n3)n2)n1)C(=O)NCCn1c([N+](=O)[O-])cnc1C` (centres unmarked) [AJ-024], the MIC was 0.25 µg/mL (≈ 0.202 µM) with S. aureus (setting [6]); 0.25 µg/mL (≈ 0.202 µM) in the data set on S. aureus (setting [7]); 0.5 µg/mL (≈ 0.403 µM) with S. aureus (setting [8]); 0.25 µg/mL (≈ 0.202 µM) with E. faecalis (setting [9]); 0.25 µg/mL (≈ 0.202 µM) with E. faecalis (setting [10]); over 32 µg/mL in the data set on A. baumannii (setting [11]). Also, the MIC in the data set on K. pneumoniae (setting [12]) was over 32 µg/mL; with P. aeruginosa (setting [13]) it was over 32 µg/mL; in the data set on E. faecium (setting [14]), 0.25 µg/mL (≈ 0.202 µM); in the data set with E. faecium (setting [15]), 0.5 µg/mL (≈ 0.403 µM); with E. coli (setting [16]), over 32 µg/mL.

For `CCN(CC)CCOC(=O)c1ccc(N)cc1` [Procaine], in “Plasma stability”, the share remaining at 0.5 h worked out at 1.4%.

As for `CC(=O)N1CCN(c2ccc(OCC3COC(Cn4ccnc4)(c4ccc(Cl)cc4Cl)O3)cc2)CC1` (centres unmarked) [Ketoconazole, reference compound], the “CYP Inhibition 2C19” value on CYP2C19 turned out to be 97.6.

For the compound `C[C@@H]1C[C@H]2[C@@H]3CCC4=CC(=O)C=C[C@]4(C)[C@@]3(F)[C@@H](O)C[C@]2(C)[C@@]1(O)C(=O)CO` [Dexamethasone, reference compound], the fraction unbound at 4 h, 10 μM in the data set “in vitro” is 0.212.
